Values joined by “and” are separate entries in the source; they are usually repeats but may differ in a detail not shown here. Equal entries are not always repeated.
Columns and labels:
human serotonin 5-HT1AR = molecular target: T1, human serotonin 5-HT1AR (Homo sapiens, UniProt P08908); test: cAMP inhibition (LANCE Ultra cAMP, forskolin-stimulated CHO-K1 cells)
T1 sequence (P08908 1-422): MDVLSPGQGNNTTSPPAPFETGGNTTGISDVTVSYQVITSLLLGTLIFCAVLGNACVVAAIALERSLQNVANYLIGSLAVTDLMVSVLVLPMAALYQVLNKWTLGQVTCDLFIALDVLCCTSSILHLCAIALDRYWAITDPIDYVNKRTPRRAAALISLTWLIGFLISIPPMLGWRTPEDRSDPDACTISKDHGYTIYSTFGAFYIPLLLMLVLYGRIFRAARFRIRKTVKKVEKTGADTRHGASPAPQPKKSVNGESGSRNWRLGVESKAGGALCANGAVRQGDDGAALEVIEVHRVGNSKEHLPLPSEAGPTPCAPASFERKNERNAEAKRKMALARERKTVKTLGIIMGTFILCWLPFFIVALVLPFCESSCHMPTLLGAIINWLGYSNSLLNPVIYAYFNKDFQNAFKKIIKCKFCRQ
Procedure: CHO-K1 cell line transfected with 5-HT1A receptor, were commercially obtained from Perkin Elmer (Cat. No. ES-310-C, Lot Number M2W-C1). Cells were cultured according to manufacturer’s instruction.
The cells were cultured under selective conditions (400 μg/mL Geneticin G418). Thawed cells were resuspended in stimulation buffer (HBSS, 5 mM HEPES, 0.5 IBMX, and 0.1% BSA at pH 7.4) at 2 × 10^5 cells/mL. The same volume (10 μL) of cell suspension was added to tested compounds with 10 μM forskolin. Cell stimulation was performed for 40 min at room temperature. After incubation, cAMP measurements were performed with homogeneous TR-FRET immunoassay using the LANCE Ultra cAMP kit (PerkinElmer, USA) according to the manufacturer’s instruction (PerkinElmer). The TR-FRET signal was read on an EnVision microplate reader (PerkinElmer, USA).

[1] = Body weight measurement in the 17-day experiment; type: in vivo, Swiss albino mice; details: for body weight Mean / body weight: mouse, 1.25 mg/kg
Procedure: (§1) The Swiss albino mice were used in the experiment. AZ-853 and AZ-861 were injected once daily for 16 consecutive days. On the 1st and 15th day the administration of the compounds, 18-h spontaneous animal activity was registered (see below). FST, as described earlier, was performed on the 14th day just before the next treatment. To ensure that the effects observed in FST are not the result of increased motility of animals, on the 13th day, just before the next administration, the locomotor activity was measured as described earlier, from 2 to 6 min after test start, i.e. in the period identical to the duration of FST. Blood and organ collection was performed on the 17th day at 24 h after the last dose and fasting.
The body weight was measured daily immediately prior to administration of the drugs. On the 17th day, the blood was collected from the Swiss albino mice sacrificed by decapitation 20 min after i.p. administration of heparin (2500 units/mouse) and then centrifuged at 600 × g (15 min, 4°C) to separate plasma. The liver, heart, and kidney were also collected and weighed.

PDE4B = test system: PDE4B; design: method as in PMID 27353547; details: in vitro, bioluminescent detection system; ref [8]; cited from earlier work
5-HT1AR = test system: 5-HT1AR; design: method as in PMID 27353547; details: CHO-K1 cells, Ca2+ mobilisation; ref [8]; read-out: Kb, 5-HT1AR antagonist; cited from earlier work
PDE10A = test system: PDE10A; design: method as in PMID 27353547; details: in vitro, bioluminescent detection system; ref [8]; cited from earlier work
mice = test: Spontaneous activity monitoring (RFID TraffiCage, 18 h); type: in vivo, Swiss albino mice; details: for Mean counts, spontaneous activity: 1.25 mg/kg
Procedure: as §1
The spontaneous activity of the mice was measured on the 1st and 15th day of the treatment with a special, innovative radiofrequency identification system (RFID-system)—TraffiCage (TSE-Systems, Germany). The test was conducted according to the method described in the literature. The animals had the transmitter (RFID) subcutaneously implanted, which tracked the time they spent in different areas of the cage. The data obtained were then grouped in a special computer program.

[2] = 18-h monitoring, AZ-853 0.625, AZ-861 1.25 mg/kg b.w./day

With `Cn1c(=O)c2c(nc3n(CCCCN4CCN(c5cccc(C(F)(F)F)c5)CC4)ccn23)n(C)c1=O` [AZ-861, 1,3-dimethyl-8-(4-(4-(3-(trifluoromethyl)phenyl)piperazin-1-yl)butyl)-1H-imidazo[2,1-f]purine-2,4(3H,8H)-dione] the EC50 (human serotonin 5-HT1AR) was 4.37 nM, the Emax (human serotonin 5-HT1AR; CHO-K1, read-out: Emax (%) ± SEM, agonist mode) was 76 ± 1.7% and the “higher potency than 5-HT” value (human serotonin 5-HT1AR; cAMP inhibition) was 2.6 fold. For the same molecule, the “lower efficacy than 5-HT” value (human serotonin 5-HT1AR; cAMP inhibition) was 1.3 fold, the “effect on body weight” value ([1]; mice, repeated i.p. once daily, AZ-853 0.625 mg/kg (from 10th day), AZ-861 1.25 mg/kg (2nd, 3rd, 4th day)) was “slight and significant decrease in body weight” and the “body weight Mean” value ([1]; day 1, group mean) was 23.19 g. The body weight ([1]; day 1, individual mouse) was 20.6 g and 21.8 g and 22.1 g and 24.2 g and 24.0 g and 23.4 g and 23.1 g and 24.9 g and 26.3 g and 21.5 g, the “body weight Mean” value ([1]; day 2, group mean) was 23.05 g and the body weight ([1]; day 2, individual mouse) was 20.7 g and 22.8 g and 22.6 g and 24.2 g and 23.5 g (2×) and 23.1 g and 23.6 g and 24.9 g and 21.6 g. The “body weight Mean” value ([1]; day 3, group mean) was 23.20 g, the body weight ([1]; day 3, individual mouse) was 21.0 g (2×) and 22.0 g and 23.0 g and 24.0 g (5×) and 25.0 g and the “body weight Mean” value ([1]; day 4, group mean) was 23.30 g. For the same molecule, the body weight ([1]; day 4, individual mouse) was 22.0 g (2×) and 23.0 g (3×) and 21.0 g and 24.0 g (2×) and 25.0 g and 26.0 g, the “body weight Mean” value ([1]; day 5, group mean) was 23.70 g and the body weight ([1]; day 5, individual mouse) was 21.6 g and 22.5 g and 22.7 g and 24.5 g and 24.0 g and 23.5 g and 24.9 g and 26.3 g and 25.9 g and 21.1 g. The “body weight Mean” value ([1]; day 6, group mean) was 23.76 g, the body weight ([1]; day 6, individual mouse) was 21.6 g (2×) and 22.1 g and 22.6 g and 25.1 g and 24.3 g and 23.0 g and 25.3 g and 25.6 g and 26.4 g and the “body weight Mean” value ([1]; day 7, group mean) was 23.90 g. The body weight ([1]; day 7, individual mouse) was 22.0 g (3×) and 23.0 g and 25.0 g (2×) and 24.0 g (2×) and 26.0 g (2×), the “body weight Mean” value ([1]; day 8, group mean) was 24.10 g and the body weight ([1]; day 8, individual mouse) was 23.0 g (3×) and 25.0 g (2×) and 24.0 g (2×) and 26.0 g (2×) and 22.0 g. For the same molecule, the “body weight Mean” value ([1]; day 9, group mean) was 24.40 g, the body weight ([1]; day 9, individual mouse) was 23.0 g (4×) and 26.0 g (3×) and 25.0 g (2×) and 24.0 g and the “body weight Mean” value ([1]; day 10, group mean) was 24.31 g. The body weight ([1]; day 10, individual mouse) was 22.5 g and 23.1 g (2×) and 25.2 g and 24.7 g and 24.0 g and 25.0 g and 26.6 g and 26.8 g and 22.1 g, the “body weight Mean” value ([1]; day 11, group mean) was 24.47 g and the “body weight Mean” value ([1]; day 12, group mean) was 24.59 g. The “body weight Mean” value ([1]; day 13, group mean) was 24.59 g, the “body weight Mean” value ([1]; day 14, group mean) was 24.73 g and the “body weight Mean” value ([1]; day 15, group mean) was 25.31 g. For the same molecule, the PDE4B inhibitory activity (PDE4B) was “did not induce PDE4B and PDE10A inhibitory activity”, the Kb (5-HT1AR) was 1.4 nM and the PDE10A inhibitory activity (PDE10A) was “did not induce PDE4B and PDE10A inhibitory activity”. For the same molecule, the “spontaneous activity after the 1st administration vs. control” value (mice; [2]) was “No effect on locomotor activity”, the “spontaneous activity after the 15th administration vs. control” value (mice; [2]) was “significant decrease in spontaneous activity” and the “Mean counts, spontaneous activity” value (mice; after 1st administration, 1 h after administration) was 223.1 counts. For the same molecule, the “Mean counts, spontaneous activity” value (mice; after 1st administration, 2 h after administration) was 212.3 counts, the “Mean counts, spontaneous activity” value (mice; after 1st administration, 3 h after administration) was 190.0 counts and the “Mean counts, spontaneous activity” value (mice; after 1st administration, 4 h after administration) was 112.6 counts. For the same molecule, the “Mean counts, spontaneous activity” value (mice; after 1st administration, 5 h after administration) was 125.9 counts, the “Mean counts, spontaneous activity” value (mice; after 1st administration, 6 h after administration) was 188.8 counts and the “Mean counts, spontaneous activity” value (mice; after 1st administration, 7 h after administration) was 229.5 counts. For the same molecule, the “Mean counts, spontaneous activity” value (mice; after 1st administration, 8 h after administration) was 268.3 counts, the “Mean counts, spontaneous activity” value (mice; after 1st administration, 9 h after administration) was 274.6 counts and the “Mean counts, spontaneous activity” value (mice; after 1st administration, 10 h after administration) was 298.0 counts. The “Mean counts, spontaneous activity” value (mice; after 1st administration, 11 h after administration) was 311.6 counts, the “Mean counts, spontaneous activity” value (mice; after 1st administration, 12 h after administration) was 274.9 counts and the “Mean counts, spontaneous activity” value (mice; after 1st administration, 13 h after administration) was 290.8 counts. The “Mean counts, spontaneous activity” value (mice; after 1st administration, 14 h after administration) was 267.1 counts, the “Mean counts, spontaneous activity” value (mice; after 1st administration, 15 h after administration) was 232.3 counts and the “Mean counts, spontaneous activity” value (mice; after 1st administration, 16 h after administration) was 255.3 counts. For the same molecule, the “Mean counts, spontaneous activity” value (mice; after 1st administration, 17 h after administration) was 318.8 counts, the “Mean counts, spontaneous activity” value (mice; after 1st administration, 18 h after administration) was 275.9 counts and the “Mean counts, spontaneous activity” value (mice; after 15th administration, 1 h after administration) was 228.5 counts. The “Mean counts, spontaneous activity” value (mice; after 15th administration, 2 h after administration) was 121.0 counts, the “Mean counts, spontaneous activity” value (mice; after 15th administration, 3 h after administration) was 91.6 counts and the “Mean counts, spontaneous activity” value (mice; after 15th administration, 4 h after administration) was 149.1 counts. The “Mean counts, spontaneous activity” value (mice; after 15th administration, 5 h after administration) was 154.4 counts, the “Mean counts, spontaneous activity” value (mice; after 15th administration, 6 h after administration) was 159.0 counts and the “Mean counts, spontaneous activity” value (mice; after 15th administration, 7 h after administration) was 185.0 counts. For the same molecule, the “Mean counts, spontaneous activity” value (mice; after 15th administration, 8 h after administration) was 140.4 counts, the “Mean counts, spontaneous activity” value (mice; after 15th administration, 9 h after administration) was 144.0 counts and the “Mean counts, spontaneous activity” value (mice; after 15th administration, 10 h after administration) was 195.7 counts. For the same molecule, the “Mean counts, spontaneous activity” value (mice; after 15th administration, 11 h after administration) was 177.3 counts, the “Mean counts, spontaneous activity” value (mice; after 15th administration, 12 h after administration) was 236.1 counts and the “Mean counts, spontaneous activity” value (mice; after 15th administration, 13 h after administration) was 169.1 counts. For the same molecule, the “Mean counts, spontaneous activity” value (mice; after 15th administration, 14 h after administration) was 242.3 counts, the “Mean counts, spontaneous activity” value (mice; after 15th administration, 15 h after administration) was 172.6 counts and the “Mean counts, spontaneous activity” value (mice; after 15th administration, 16 h after administration) was 218.9 counts. For the same molecule, the “Mean counts, spontaneous activity” value (mice; after 15th administration, 17 h after administration) was 210.1 counts and the “Mean counts, spontaneous activity” value (mice; after 15th administration, 18 h after administration) was 244.6 counts.
